Assay results from US12503426B2, “Synthetic derivatives of oleoyl-lysophosphatidylinositol (oleoyl-LPI) and uses thereof” (LIPOVEXA SRL, priority 2017, dated 2025).

Tests used:
[1] = system: Glutag and NCI-H761 cells; test: Dose response of GLP-1 release at different glucose concentrations; assay type: cell-based
Method: Panels A and B show results of dose response of GLP-1 release in different glucose concentration of 5 mM (panel A) and 10 mM (panel B). The dose response of GLP-1 released was normalised of number of cells measured in parallel. Glutag and […] cells were incubated with vehicle alone, oleoyl-LPI, OEA, LPC forskolin (10 μM) and PMA (1 μM) as positive control for 2 hours. Results were normalised as percentage of cell treated with vehicle (control). For panels A and B data are shown as means±SEM of n=3 from independent experiments performed in duplicates. Student t-test: *p<0.05, **P<0.01. Panel C show results of dose response of GLP-1 release in a glucose concentration of 20 mM.
(§1) Approximately 80,000 Glutag cells were plated in poly-L-lysine-coated 24-well culture plates and grown to about 80% confluence. NCI-H716 cells were seeded on growth factor reduced Matrigel™ (Becton Dickinson, Bedford, MA) in DMEM medium, supplemented with 10% FBS the day before the experiment. For NCI-H716 cells, approximately 25,000 cells were needed for this secretion experiment in order to have good stimulation with lower basal GLP-1 secretion. In brief, Glutag and NCI-H716 cells were washed twice and then incubated for 2 h with FBS-free DMEM containing 1% (M:C) alone (negative control), 10 μM forskolin as positive control (Sigma-Aldrich), or with different concentrations of Oleoyl-LPI. M:C was used as a solvent to prepare stock solutions of fatty acid derivatives and inhibitors. For secretion experiments, medium and cells were collected separately.
To determine the effect of glucose in oleoyl-LPI induced GLP-1 secretion, the inventors conducted dose-response experiment in the presence of 5 mM and 10 mM glucose in the secretion medium with the results outlined in FIG. 2A and FIG. 2B.

[2] = target: T1, human GPR119 (Homo sapiens, UniProt Q8TDV5); test: cAMP assay in GPR119 transfected COS-7 cells; assay type: cell-based; conditions: COS-7 cells expressing human GPR119, agonists 30 min; read-out: EC50, production of cAMP
T1 construct: expressed in transfected cells; host or cells: COS-7 cells, calcium phosphate transfection
T1 sequence (Q8TDV5 1-335): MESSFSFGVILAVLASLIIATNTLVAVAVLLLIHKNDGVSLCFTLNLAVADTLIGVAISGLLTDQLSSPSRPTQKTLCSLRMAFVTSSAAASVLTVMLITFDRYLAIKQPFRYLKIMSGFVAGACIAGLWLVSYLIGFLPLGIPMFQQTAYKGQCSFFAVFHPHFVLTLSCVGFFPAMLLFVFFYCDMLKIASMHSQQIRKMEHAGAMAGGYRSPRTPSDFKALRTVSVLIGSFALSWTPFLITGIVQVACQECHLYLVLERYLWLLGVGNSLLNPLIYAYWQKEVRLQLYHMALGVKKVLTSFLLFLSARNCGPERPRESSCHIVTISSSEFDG
Method: COS-7 cells were cultured in Dulbecco's modified Eagle medium (DMEM) 1885 supplemented with 10% FBS, […] L-glutamine and 180 IU/ml penicillin+[…] streptomycin (Pen Strep) (Life Technologies, CA, USA) at 37° C. and 10% CO2. The COS-7 cells were transiently transfected with GPR119 or pcDNA by the calcium phosphate transfection method for 5 hours in 37° C., 10% CO2 as described by Kissow H, Hartmann B, Hoist J J, Viby N E, Hansen L S, Rosenkilde M M, Hare K J, Poulsen S S. Regul Pept. 2012. Vol: 179(1-3), pp 91-100; the disclosure of which is incorporated herein in its entirety by way of reference.
COS-7 cells were transfected with about 40 μg GPR119 DNA or pcDNA3 per […] flask. One day after transfection, the cells were seeded out (about 35,000 cell/well) in a 96 well white plate (Perkin Elmer, Massachusetts, USA). The cells were washed twice the following day and incubated for 30 min, at 37° C. with HBS and 1 mM IBMX (Sigma Aldrich, USA). Agonists were added for 30 min in the assay medium. The Hithunter® cAMP XS+ (DiscoveRx, Fremont, USA) was carried out by following the manufacturer's instructions.
Accordingly, the work outlined in this example evaluates whether activation of GPR119 by oleoyl-LPI in enteroendocrine L cell affect the proglucagon gene expression by monitoring the CREB activity. […]

[3] = system: colonic cells of the GI tract obtained from guinea pig; test: Ex vivo GLP-1 biosynthesis and secretion, guinea pig GI tract cells; assay type: cell-based; conditions: Cavia porcellus; ex vivo incubation 2 hours, quadruplicates
Method: To test for this, a pregnant guinea pig was anesthetized with isoflurane and sacrificed via intra-cardial injection of pentobarbital. Colon and rectum were quickly collected and intraluminal content washed out with ice-cold HBSS. After a thorough cleansing from the faecal material, and gentle scraping of the internal mucosa, the tissue was minced into 3 to 5-millimetre pieces and resuspended into 50 ml of ice cold HBSS. Pellet was spun down and washed again in 50 ml of ice-cold HBSS. Supernatant was carefully removed, and the epithelial fragments were then resuspended for 30 minutes at 37° C. into a 5 ml solution of HEPES 25 mM, collagenase-P 1 mg/ml in HBSS, pH 7.4 at 37° C.
The tissue was then pelleted and resuspended further for about 30 to 40 additional minutes at 37° C. within a 10 ml solution of 1 mg/ml collagenase-P as above.
After the digestion, about 40 ml of pre-warmed DMEM complete media was added (FBS 10%, glucose 4.5 g/L, glutamine 4 mM, sodium pyruvate 1 mM, HEPES 25 mM, sodium bicarbonate 3.7 g/L, Pen/Strep 1× and Ciprofloxacin 10 μg/ml pH 7.4 at 37° C.). Crypts and individual cells were isolated with a […] nylon strainer, spun down at 200 g for 5 minutes, resuspended into 10 ml of DMEM complete media and plated into 20 wells of a 24-well plate coated with a 3D gel of 3 mg/ml Matrigel (BD, Biosciences, Oxford, UK). After one day of incubation at 37° C. 5% CO2 in a humidified incubator, cells were washed with 500 μl of warm HBSS, and treated with 250 μl DMEM serum free (Complete medium without FBS) additioned with KR-62436 10 μg/ml and individually the following drugs or compounds: Forskolin and IBMX (20 μM each), oleoyl-LPI, and the two oleoyl-LPI analogs and/or derivatives ps297b (prepared as described in example 13) and ps316a (prepared as described in example 22) were all tested in quadruplicate at 20 μM.
After a 2-hour long incubation at 37 C 5% CO2, the supernatants were collected on ice, and quickly stored at […]. Active GLP-1 levels (7-37 amide and 7-36) were quantified on 50 μl of supernatant with an ELISA commercial kit (EMD Millipore). DMSO was used as a negative control, the combination of Forskolin and IBMX was included as positive control activators GLP-1. GLP-1 levels measured were standardized against the DMSO control.
The EC50 levels each one of oleoyl-LPI, compound ps297b and compound ps316a were also measured in quadruplicates at the conclusion of the 2 hour incubation. Guinea pig cells obtained as described above were also incubated with […] in quadruplicates and subjected to 2-hour long incubation at 37 C 5% CO2 as described above and EC50 levels measured.

[4] = system: Glutag cells; test: GLP-1 secretion by Glutag cells; assay type: cell-based, murine; conditions: Glutag cells, inhibitor 1 hour before oleoyl-LPI (PD98059 50 μM; H89 10 μM)
Method: Glutag cells were maintained in low glucose DMEM (Sigma) (1 g/L) containing 2.0 mM L-glutamine, 1.0 mM sodium pyruvate and supplemented with 10% FBS, 100 IU/ml penicillin, 100 μg/ml streptomycin at a 37° C. and 5% CO2.
as §1
(§2) In separate studies, GLUTag or NCI-H716 cells were pre-treated for 1 hour with medium alone (1% DMSO, negative control), PD98059 (50 μM; Sigma Chemical Co.), H89 (10 μM; Santa Cruz) followed by treatment with oleoyl-LPI (20 μM), OEA (10 μM), AR231453(1 μM), PMA (10 μM) or forskolin (10 μM, positive control) in the presence of inhibitors, as appropriate, for about 2 h. Medium GLP-1 secretion was calculated as total GLP-1 content of medium normalised for the basal secretion of the control.
(§3) In order to investigate the role of different LPI species in enteroendocrine cells, murine (Glutag) and human (NCI-H716) L-cells were stimulated with the following different species of LPI: Arachidonyl-LPI, Stearoyl-LPI, Heptadecenoyl-LPI and oleoyl-LPI, as well as with OEA and LPC. Experiments were performed in duplicate, n=4 and the level of total GLP-1 was measured by ELISA.

[5] = system: NCI-H716 cells; test: GLP-1 secretion by NCI-H716 cells (Examples 2-8); assay type: cell-based, human; conditions: NCI-H716 cells, inhibitor 1 hour before oleoyl-LPI (PD98059 50 μM; H89 10 μM)
Method: NCI-H716 cells were maintained in 75 cm^2 tissue culture flasks (Corning) in RPMI 1640 media containing 2.0 mM L-glutamine, 1.5 g/L sodium bicarbonate, 10 mM HEPES buffer, 1.0 mM sodium pyruvate, and 4.5 g/L glucose and supplemented with 10% FBS at a 37° C. and 5% CO2. When plating for experiment, cell adhesion and endocrine differentiation were initiated by growing cells in dishes coated with growth factor reduced Matrigel diluted at the ratio of 1:2 (Becton Dickinson, Bedford, MA) in high-glucose DMEM, 10% FBS, 2 mM glutamine, 100 IU/ml penicillin, and 100 μg/ml streptomycin as described previously by De Bruine, a P., Dinjens, W. N., van der Linden, E. P., Pijls, M. M., Moerkerk, P. T., & Bosman, F. T. (1993) The American Journal of Pathology, Vol 142(3), pp 773-782, the disclosure of which is incorporated herein in its entirety by reference.
as §1, §2, §3

[6] = system: CREB; test: CREB phosphorylation by Western blot; assay type: cell-based; conditions: H89 10 μM pre-treatment or oleoyl-LPI in control cells
Method: When cell cultures reached 80-90%, media were removed and cells were washed twice with 1×PBS. The cells were lysed in 150 μl (for one well of a 6 well plate) of Triton X-100 lysis buffer, containing phosphatase inhibitor cocktail (1:1000) (Sigma Aldrich, UK) and protease inhibitor (1:1000, Sigma Aldrich, UK). Cells were detached with scrapers and lysate were collected and centrifuged at 10,000 rpm, 4° C. for 5 minutes. The supernatant was then transferred to a 1.5 ml microcentrifuge tube and used for protein quantification. Cell lysates were stored at −20° C. for longer storage. All lysates were prepared on ice.
Non-specific antibody binding was prevented by incubating the nitrocellulose membrane in 5% milk in PBS-0.05% Tween-20 (v/v) for 30 minutes on a rotating plate. The membrane was then washed in PBS-0.05% Tween-20 (v/v) and then incubated with the primary antibody diluted in PBS-0.05% Tween-20 (v/v) on a rotating plate overnight at 4° C. After 24 hours, the membrane was washed 5× for 5 minutes with PBS-0.05% Tween-20 (v/v), and then incubated on a rotating plate with the appropriate secondary antibody for 1 hour at room temperature. […]

Row | Structure (SMILES) | GLP-1 secretion ([1]; 5 mM glucose, 50 μM, 2 hours, percentage of vehicle control) [%] | GLP-1 secretion, dose response ([1]; 10 mM glucose) | EC50 [2] [nM] | EC50 [3] [µM] | oleoyl-LPI induced GLP-1 secretion with inhibitor pre-treatment [4] | oleoyl-LPI induced GLP-1 secretion with inhibitor pre-treatment [5] | phosphorylation of CREB [6]
1 | CCCCCCCC/C=C\CCCCCCCC(=O)NCCO [OEA, Oleoylethanolamide] | 178±15 | dose-dependently stimulate GLP-1 secretion in similar manner of oleoyl-LPI | 422 | 30.7 | – | – | –
2 | O=S(=O)(NCCNC/C=C/c1ccc(Br)cc1)c1cccc2cnccc12 [H89] | – | – | – | – | observable reduction in GLP-1 secretion | observable reduction in GLP-1 secretion | inhibited
